Results as given in PMC10730845, “Endoxifen downregulates AKT phosphorylation through protein kinase C beta 1 inhibition in ERα+ breast cancer” (NPJ Breast Cancer, 2023).
Where “and” joins values, the source holds several entries; their conditions need not be identical. Equal entries are not always repeated. Where two headings read alike, the source gives them in different places.

Key:
MCF7AC1 cells = experiment: Crystal violet cell viability / proliferation assay, MCF7AC1; assay type: cell-based, human; details: CSS medium, 48 h, 0 to 10 µM tested
Method: Fig. 1 Z-endoxifen (ENDX) effects on cell viability and apoptosis in estrogen deprived ERα+ /HER2- MCF7AC1 cells. a Cells grown in CSS medium were treated with vehicle control or the indicated ENDX concentrations for […]. Cell viability was assessed by the crystal violet assay. b Cells were co-treated with vehicle control or the indicated ENDX concentrations, IncuCyte Annexin V green and NucLight red reagents in CSS medium for 48 h. […] Data represents the mean of six wells per treatment performed as biological duplicates ± s.d. **p ≤ 0.01; ***p ≤ 0.001; ****p ≤ 0.0001 by one-way ANOVA.
Cells were plated at a density of 2000 cells per well. Cell viability of (i) vehicle or drug treated MCF7AC1 and T47D-LTED cells in CSS medium, (ii) siNT or siPKCβ-transfected MCF7AC1 cells in CSS medium and (iii) T47D cells in FBS versus CSS medium were analyzed by crystal violet staining assay after 6 days of treatment or siRNA transfection as previously described. Cell viability was calculated as the average absorbance of the drug treated cells divided by the average absorbance of the vehicle treated cells × 100.

MDAMB436 cells = experiment: Crystal violet growth assay, MDAMB436; assay type: cell-based, human; details: day seven
From the text: Supplementary Figure 8. […]
ANOVA. b, Effects of ENDX on cell proliferation at the indicated concentrations on day seven of
treatment. […]

[1] = test system: AKT phosphorylation in T47D cells; experiment: Immunoblot of AKT phosphorylation, serum starved T47D; assay type: cell-based, human; details: not at 0.01 or 0.10 µM
Method: The ENDX hydrochloride utilized in this study was synthesized in collaboration between Mayo Clinic and National Institute of Health (NIH). Estrogen deprived MCF7AC1 were treated with vehicle control or ENDX (National Cancer Institute) for 24 h. For the phorbol 12-myristate 13-acetate (PMA) (LC Laboratories, #P-1680) experiments, MCF7AC1 cells were maintained in serum-free medium for 24 h prior to pretreatment with vehicle or ENDX for 2 h followed by treatment with 20 or 200 nM PMA for 20 min. For the insulin (Sigma-Aldrich, #I0516) experiments, MCF7AC1 and T47D cells were maintained in serum-free medium for 24 h prior to pretreatment with vehicle control or drugs for 2 h followed by treatment with 100 nM insulin for 1 h.
Protein lysates were prepared using the RIPA lysis buffer system (ChemCruz #sc-24948) and quantified using the DC^TM Protein Assay reagents (Bio-Rad #5000112). Equal amounts of protein lysates were separated on 10% Criterion gels (Bio-Rad #3450112), transferred to PVDF membranes (Bio-Rad #1620177), blocked in TBST-5% milk and probed with primary antibodies listed in Supplementary Table 5, at the indicated dilutions. Membranes were incubated with HRP-conjugated anti-rabbit (CST #7074) or anti-mouse (CST #7076) secondary antibodies and visualized using chemiluminescent West Pico (Thermo Scientific #34580) or West Femto (Thermo Scientific #34096) reagents and a Li-Cor Odyssey® XF imager. […] Quantitation of the protein bands signal intensity was performed using the NIH ImageJ image analysis software (https://imagej.nih.gov/ij///index.html). For the quantitation of the phospho protein levels, we first normalized total protein levels to β-actin loading control and used these values to normalize the phospho protein levels and compared change in protein expression levels relative to vehicle control normalized to 1.0. For the quantitation of total protein levels, we normalized the total protein levels to β-actin and compared change in expression levels relative to vehicle control normalized to 1.0. […]

MCF7AC1 xenograft tumors = experiment: Immunoblot of MCF7AC1 xenograft tumor lysates after in vivo treatment; parameters: species or system mice; details: four weeks
Method: (§1) Protein lysates were prepared using the RIPA lysis buffer system (ChemCruz #sc-24948) and quantified using the DC^TM Protein Assay reagents (Bio-Rad #5000112). Equal amounts of protein lysates were separated on 10% Criterion gels (Bio-Rad #3450112), transferred to PVDF membranes (Bio-Rad #1620177), blocked in TBST-5% milk and probed with primary antibodies listed in Supplementary Table 5, at the indicated dilutions. Membranes were incubated with HRP-conjugated anti-rabbit (CST #7074) or anti-mouse (CST #7076) secondary antibodies and visualized using chemiluminescent West Pico (Thermo Scientific #34580) or West Femto (Thermo Scientific #34096) reagents and a Li-Cor Odyssey® XF imager. Protein lysates from the MCF7AC1 xenograft model were obtained from a previous study. Quantitation of the protein bands signal intensity was performed using the NIH ImageJ image analysis software (https://imagej.nih.gov/ij///index.html). For the quantitation of the phospho protein levels, we first normalized total protein levels to β-actin loading control and used these values to normalize the phospho protein levels and compared change in protein expression levels relative to vehicle control normalized to 1.0. For the quantitation of total protein levels, we normalized the total protein levels to β-actin and compared change in expression levels relative to vehicle control normalized to 1.0. All blots were processed in parallel and derived from the same experiments. Unprocessed immunoblot images are provided in Supplementary Figs. 9–13.
Supplementary Figure 2. […]
Supplementary Figure 6. […]
MK-2206 in CSS medium for 24 hours. IB assay of pAKTSer473, AKT, PARP, cleaved PARP and
β-actin. d, MCF7AC1 xenograft protein lysates were treated with the indicated drugs for four
weeks. […]
ANOVA for figs. (a), (b), (g), (h) and (i) and unpaired t test for fig. (e).

[2] = test system: AKT phosphorylation (pAKT^Ser473, pAKT^Thr308, p-AKT substrates) in MCF7AC1 cells; experiment: Immunoblot of AKT signaling and PARP cleavage, MCF7AC1; assay type: cell-based, human
Method: The ENDX hydrochloride utilized in this study was synthesized in collaboration between Mayo Clinic and National Institute of Health (NIH). Estrogen deprived MCF7AC1 were treated with vehicle control or ENDX (National Cancer Institute) for 24 h. […] For the insulin (Sigma-Aldrich, #I0516) experiments, MCF7AC1 and T47D cells were maintained in serum-free medium for 24 h prior to pretreatment with vehicle control or drugs for 2 h followed by treatment with 100 nM insulin for 1 h.
as §1

[3] = mice, cited from earlier work; for Cmax: read-out: Plasma Cmax
[4] = CSS medium, 24 h, not at 0.01 and 0.1 μM

CC/C(=C(\c1ccc(O)cc1)c1ccc(OCCNC)cc1)c1ccccc1 [ENDX, Z-endoxifen]
Concentrations that significantly reduced cell viability (MCF7AC1 cells): ≥ 2.5 µM | Concentrations at which growth was inhibited (MDAMB436 cells): > 7.5 µM | Concentration blocking insulin-stimulated AKT^Ser473 phosphorylation [1]: 5 µM | Effect on AKT phosphorylated substrates in tumors (MCF7AC1 xenograft tumors; 75 mg/kg): reduced the levels of AKT phosphorylated substrates | Effect on AKT^Thr308 phosphorylation in tumors (MCF7AC1 xenograft tumors; 75 mg/kg): no appreciable impact on AKT^Thr308 phosphorylation | Effect on AKT^Ser473 phosphorylation in tumors (MCF7AC1 xenograft tumors; 75 mg/kg, vs control treatment): attenuated AKT^Ser473 phosphorylation | Dose increasing PARP cleavage in tumors (MCF7AC1 xenograft tumors; not at 25 mg/kg): 75 mg/kg | Effect on AKT^Thr308 phosphorylation ([2]; CSS medium, 24 h, 5 µM): did not alter AKT^Thr308 phosphorylation | Concentration increasing PARP cleavage ([2]; CSS medium, 24 h, 0.01, 0.1 and 5 µM tested): 5 µM | Effect on AKT^Thr308 phosphorylation ([2]; CSS medium, 24 h, 0.01 and 0.1 µM): stimulated AKT^Thr308 phosphorylation | Concentration attenuating AKT^Ser473 phosphorylation [2, 4]: 5 µM | Concentration reducing phosphorylation of AKT substrates [2, 4]: 5 µM | Effect on insulin-stimulated AKT^Thr308 phosphorylation ([2]; serum starved, 100 nM insulin 1 h, 5 μM): able to block AKT^Thr308 phosphorylation | Effect on insulin-stimulated phosphorylation of AKT substrates ([2]; serum starved, 2 h pretreatment, 100 nM insulin 1 h, 5 µM): diminished insulin-stimulated phosphorylation of AKT substrates | Concentration blocking insulin-stimulated AKT^Ser473 phosphorylation ([2]; serum starved, 2 h pretreatment, 100 nM insulin 1 h, not at 0.01 and 0.1 μM): 5 µM | Effect on PMA-stimulated AKT^Ser473 phosphorylation ([2]; serum starved, 2 h pretreatment, 200 nM PMA 20 min, 5 μM): reduced AKT^Ser473 phosphorylation | Plasma concentration ([3]; 25 mg/kg for five consecutive days, 25 mg/kg): 73.1 ± 16.8 ng/ml and 0.20 ± 0.04 µM | Plasma concentration ([3]; 100 mg/kg for five consecutive days, 100 mg/kg): 1700 ± 60 ng/ml and 4.55 ± 0.16 µM | Plasma Cmax ([3]; single dose 25 mg/kg): 103 ± 97 ng/mL | Cmax ([3]; single dose 25 mg/kg): 280 ± 260 nM | Plasma Cmax ([3]; single dose 75 mg/kg): 660 ± 511 ng/mL | Cmax ([3]; single dose 75 mg/kg): 1770 ± 1370 nM
